From PubChem BioAssay (NCI)
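Growth conditions: 96-well plates. Treatment: test compound, 48 hours, 5 concentrations. Analysis: linear interpolation between bracketing concentrations; unreached endpoints set to highest concentration. GI50 marks 50% less growth. TGI: total growth inhibition.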

Tests used:
Experiment in all cases: NCI tumour cell line growth inhibition, 48 h
HCT-116 colon = tested on: HCT-116 colon
HCT-15 colon = tested on: HCT-15 colon
HOP-62 NSCLC = tested on: HOP-62 NSCLC
HS 578T breast = tested on: HS 578T breast
OVCAR-3 ovarian = tested on: OVCAR-3 ovarian
PC-3 prostate = tested on: PC-3 prostate
SF-268 CNS = tested on: SF-268 CNS
UO-31 renal = tested on: UO-31 renal
NCI-H460 lung = tested on: NCI-H460 lung
NCI-H522 lung = tested on: NCI-H522 lung

Compound	TGI (HCT-116 colon) [µM]	TGI (HCT-15 colon) [µM]	TGI (HOP-62 NSCLC) [µM]	TGI (HS 578T breast) [µM]	TGI (OVCAR-3 ovarian) [µM]	TGI (PC-3 prostate) [µM]	TGI (SF-268 CNS) [µM]	TGI (UO-31 renal) [µM]	TGI (NCI-H460 lung) [µM]	TGI (NCI-H522 lung) [µM]	GI50 (HCT-116 colon) [µM]	GI50 (HCT-15 colon) [µM]	GI50 (NCI-H460 lung) [µM]	GI50 (PC-3 prostate) [µM]	GI50 (SF-268 CNS) [µM]	GI50 (NCI-H522 lung) [µM]	GI50 (OVCAR-3 ovarian) [µM]	GI50 (UO-31 renal) [µM]
Cc1ccsc1/C=N/Nc1ccccn1	> 100	> 100	> 100	> 100	> 100	> 100	> 100	> 100	–	–	–	–	–	–	–	–	–	–
Cc1oc2c(C)c3oc(=O)cc(C)c3cc2c1CN	> 100	> 100	> 100	–	> 100	–	> 100	> 100	> 100	> 100	–	–	–	–	–	–	–	–
COC1=CCC2=C(CCN(C(=O)C3CCC3)C2Cc2ccc(OC)c(O)c2)C1 (stereo not drawn)	48.6	25.1	> 100	66.6	27.4	> 100	> 100	–	31.1	42	–	–	–	–	–	–	–	–
C/C(=N\n1c(Cc2ccccc2)n[nH]c1=O)c1ccc([N+](=O)[O-])cc1	> 100	> 100	> 100	> 100	> 100	> 100	–	> 100	> 100	> 100	–	–	–	–	–	–	–	–
CC(C)(Oc1ccc(C(=O)c2ccc(Cl)cc2)cc1Cl)C(=O)N1CCN(c2ccccc2)CC1	> 100	> 100	> 100	–	> 100	–	> 100	> 100	> 100	> 100	–	–	–	–	–	–	–	–
NC(CNc1ccc(O)cc1)C(=O)O (stereo not drawn)	> 100	> 100	> 100	–	> 100	–	> 100	> 100	> 100	> 100	–	–	–	–	–	–	–	–
CN(/N=C/c1ccc(Cl)c(Cl)c1)C1=NCCN1	39.1	> 100	37.7	> 100	> 100	38.3	> 100	–	> 100	27.8	–	–	–	–	–	–	–	–
N#CI1OC(C(F)(F)F)(C(F)(F)F)c2ccccc21	30.4	32.6	> 100	–	29.2	30.1	73.9	28.6	72.5	27.3	–	–	–	–	–	–	–	–
C=C(COC(=O)C(C)C)[C@H]1Oc2ccc(C(C)=O)cc2[C@@H]1OC(=O)C(C)C	> 100	> 100	> 100	> 100	> 100	> 100	> 100	> 100	> 100	–	–	–	–	–	–	–	–	–
O=C1CC(Cl)c2c(Cl)sc(Cl)c21 (stereo not drawn)	3.12	5.07	18.6	> 27.9	–	5.64	5.51	3.67	40	4.51	–	–	–	–	–	–	–	–
COc1ccc(/C=C/C(c2cc(OC)c(OC)c(OC)c2)n2cncn2)cc1O (stereo not drawn)	> 100	> 100	–	–	–	> 100	> 100	–	51.9	–	0.041	0.0508	0.0423	0.036	0.059	–	–	–
CC1=CC(=O)/C(=C/N2CCNC2=S)C(=O)O1	> 100	> 100	> 100	> 100	–	> 100	> 100	> 100	> 100	> 100	–	–	–	–	–	–	–	–
Cc1nn(C(=O)c2ccc(Cl)cc2)c2c1C(c1ccco1)SC(N)=N2 (stereo not drawn)	> 10	> 10	> 10	> 10	> 10	> 10	> 10	–	> 10	> 10	–	–	–	–	–	–	–	–
CC1CN=C(N(C)C(=O)Nc2ccc(Cl)c(Cl)c2)S1 (stereo not drawn)	> 100	91.5	> 100	> 100	> 100	> 100	> 100	> 100	> 100	–	–	–	–	–	–	–	–	–
CC(CN(C)C)C(=O)/C=C/c1ccc(Cl)c(Cl)c1 (stereo not drawn)	2.99	–	10.4	29	3.87	2.25	4.14	3.22	5.2	3.24	–	–	–	–	–	–	–	–
Cc1cnc2[nH]c(-c3cccc(Cl)c3)cc(=O)c2c1	–	> 100	3.45	20.5	0.0755	> 100	34.5	> 100	> 58.2	15	–	–	–	–	–	–	–	–
Clc1cccc(N=C/C=C/Nc2cccc(Cl)c2)c1	28.2	37.7	30.7	> 100	45.4	28.4	–	34.2	35.2	29.3	–	–	–	–	–	–	–	–
c1cn[nH]c1	> 10	> 10	> 10	> 10	> 10	> 10	> 10	> 10	> 10	–	–	–	–	–	–	–	–	–
C=CCc1cccc2cc(C(=O)Nc3nc(C45CC6CC(CC(C6)C4)C5)cs3)c(=O)oc12	–	> 100	36.3	47.9	67.6	> 100	55	25.2	> 100	> 100	–	–	–	–	–	–	–	–
C/C(=C/c1c(C)[nH]c(=O)[nH]c1=O)C(=O)O	> 1380	> 1380	> 1380	–	> 1380	–	> 1380	> 1380	> 1380	> 1380	–	–	–	–	–	–	–	–
Cc1nn(-c2ccccc2)c2c1N=C(C(=O)O)CC(c1ccccc1)=N2	> 10	> 10	> 10	> 10	> 10	> 10	> 10	–	–	> 10	–	–	–	–	–	–	–	–
CCCCNCC(O)c1cc(-c2ccc(C(F)(F)F)cc2)nc(-c2ccc(C(F)(F)F)cc2)c1 (stereo not drawn)	–	–	–	–	3.66	3.05	3.89	3.08	–	3.53	–	–	–	1.52	1.97	1.8	1.98	1.44
CC(=O)C(C(=O)C(C)(C)C)C(=O)C(C)(C)C	> 100	> 100	> 100	> 100	–	> 100	> 100	> 100	> 100	> 100	–	–	–	–	–	–	–	–
